As a reminder, the IC50 is the concentration that inhibits the measured activity by half. Low values mean greater potency in that assay, high ones weaker potency in that assay.

Drawing on ChEMBL document CHEMBL1142484, “Design and synthesis of sulfoximine based inhibitors for HIV-1 protease” (Bioorg Med Chem Lett, 2008), this text covers IC50 for 3 molecules.

Protease, sequence (Q9YQ12 whole entry): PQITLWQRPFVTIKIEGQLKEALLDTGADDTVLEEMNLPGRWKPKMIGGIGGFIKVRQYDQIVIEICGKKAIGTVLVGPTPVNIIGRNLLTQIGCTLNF

The assay concerns the target Protease (Human immunodeficiency virus 1, UniProt Q9YQ12). Put plainly: Inhibition of HIV1 protease.
As to `O=C(N[C@H]1c2ccccc2C[C@H]1O)[C@H](Cc1ccccc1)CC(O)C[C@@H](Cc1ccccc1)C(=O)N[C@H]1c2ccccc2C[C@H]1O`, the IC50 was 0.0006 µM.
To `CC(C)(C)NC(=O)[C@H]1CN(Cc2cccnc2)CCN1C[S+](=N)([O-])C[C@H](Cc1ccccc1)C(=O)N[C@@H]1c2ccccc2C[C@@H]1O` (stereo partly drawn) belongs 100 µM; to `CC(C)(C)NC(=O)C1CN(Cc2cccnc2)CCN1C[S+]([O-])C[C@H](Cc1ccccc1)C(=O)NC1c2ccccc2CC1O` (single isomer, unassigned), 100 µM.
